Columns and labels:
Type in all cases: cell-based, human
A498 = assay: NCI-60 five-dose assay (renal cancer); conditions: 48 h, SRB
SF-295 = assay: NCI-60 one-dose screen (CNS cancer); conditions: 10 µM single dose, 48 h
Method: (§1) The obtained quinolinequinones were submitted to NCI, Bethesda, USA, and, as per standard protocol of NCI, all compounds were evaluated for their antiproliferative activity at single-dose assay (10 µM concentration in DMSO) on a panel of 60 cancer cell lines derived from leukemia, non-small-cell lung, colon, CNS, melanoma, ovarian, renal, prostate, and breast, as per protocol. Tested compounds were added to the microtiter culture plates followed by incubation for 48 h at 37 °C. Sulforhodamine B (SRB), a protein-binding dye, is used for endpoint determination. The percent of the growth of the treated cells was determined in comparison to the untreated control cells and the results of each tested compound were reported. Data from one-dose experiments pertain to the percentage growth at 10 μM [16, 17, 18].

SNB-75 = assay: NCI-60 one-dose screen (CNS cancer); conditions: 10 µM single dose, 48 h
Method: as §1

SF-268 = assay: NCI-60 one-dose screen (CNS cancer); conditions: 10 µM single dose, 48 h
Method: as §1

SNB-19 = assay: NCI-60 one-dose screen (CNS cancer); conditions: 10 µM single dose, 48 h
Method: as §1

SF-539 = assay: NCI-60 one-dose screen (CNS cancer); conditions: 10 µM single dose, 48 h
Method: as §1

U251 = assay: NCI-60 one-dose screen (CNS cancer); conditions: 10 µM single dose, 48 h
Method: as §1

DU-145 [1] = assay: NCI-60 five-dose assay (prostate cancer); conditions: 48 h, SRB
OVCAR-4 = assay: NCI-60 five-dose assay (ovarian cancer); conditions: 48 h, SRB
NCI-H23 = assay: NCI-60 five-dose assay (non-small cell lung cancer); conditions: 48 h, SRB
LOX IMVI = assay: NCI-60 five-dose assay (melanoma); conditions: 48 h, SRB
SK-MEL-5 = assay: NCI-60 five-dose assay (melanoma); conditions: 48 h, SRB
OVCAR-8 = assay: NCI-60 five-dose assay (ovarian cancer); conditions: 48 h, SRB
SR [2] = assay: NCI-60 five-dose assay (leukemia); conditions: 48 h, SRB
CCRF-CEM [3] = assay: NCI-60 five-dose assay (leukemia); conditions: Homo sapiens, 48 h, SRB
T-47D [4] = assay: NCI-60 five-dose assay (breast cancer); conditions: 48 h, SRB
K-562 [5] = assay: NCI-60 five-dose assay (leukemia); conditions: SRB
NCI-H322M = assay: NCI-60 five-dose assay (non-small cell lung cancer); conditions: 48 h, SRB
PC-3 = assay: NCI-60 one-dose screen (prostate cancer); conditions: 10 µM single dose
Method: as §1

DU-145 [6] = assay: NCI-60 one-dose screen (prostate cancer); conditions: 10 µM single dose, 48 h
Method: as §1

BT-549 = assay: NCI-60 one-dose screen (breast cancer); conditions: 10 µM single dose, 48 h
Method: as §1

MDA-MB-468 [7] = assay: NCI-60 one-dose screen (breast cancer); conditions: 10 µM single dose, 48 h
Method: as §1

T-47D [8] = assay: NCI-60 one-dose screen (breast cancer); conditions: 10 µM single dose, 48 h
Method: as §1

MDA-MB-231/ATCC = assay: NCI-60 one-dose screen (breast cancer); conditions: 10 µM single dose, 48 h
Method: as §1

HS 578T [9] = assay: NCI-60 one-dose screen (breast cancer); conditions: 10 µM single dose, 48 h
Method: as §1

MCF7 = assay: NCI-60 one-dose screen (breast cancer); conditions: 10 µM single dose, 48 h
Method: as §1

TK-10 = assay: NCI-60 five-dose assay (renal cancer); conditions: 48 h, SRB
SW-620 = assay: NCI-60 five-dose assay (colon cancer); conditions: 48 h, SRB
OVCAR-5 = assay: NCI-60 five-dose assay (ovarian cancer); conditions: 48 h, SRB
UACC-62 = assay: NCI-60 five-dose assay (melanoma); conditions: 48 h, SRB
HS 578T [10] = assay: NCI-60 five-dose assay (breast cancer); conditions: 48 h, SRB
MDA-MB-468 [11] = assay: NCI-60 five-dose assay (breast cancer); conditions: 48 h, SRB
K-562 [12] = assay: NCI-60 one-dose screen (leukemia)
Method: as §1

HL-60(TB) = assay: NCI-60 one-dose screen (leukemia); conditions: 10 µM single dose, 48 h
Method: as §1

SR [13] = assay: NCI-60 one-dose screen (leukemia); conditions: 10 µM single dose, 48 h
Method: as §1

MOLT-4 = assay: NCI-60 one-dose screen (leukemia); conditions: 10 µM single dose
Method: as §1

RPMI-8226 = assay: NCI-60 one-dose screen (leukemia); conditions: 10 µM single dose, 48 h
Method: as §1

CCRF-CEM [14] = assay: NCI-60 one-dose screen (leukemia); conditions: 10 µM single dose
Method: as §1

[15] = Homo sapiens, read-out: LC50 (the source's name)

## COc1cc(NC2=C(Cl)C(=O)c3nc(C)ccc3C2=O)cc(OC)c1 [AQQ5]
A498
  TGI: 11.4 µM
A498; Homo sapiens
  GI50: 2.35 µM
  LC50: 33.8 µM
SF-295
  GP (growth percentage): 51.57%
SNB-75
  GP (growth percentage): −4.09%
SF-268
  GP (growth percentage): 37.00%
SNB-19
  GP (growth percentage): 30.42%
SF-539
  GP (growth percentage): −30.92%
U251
  GP (growth percentage): 36.76%
DU-145 [1]
  TGI: 3.55 µM
DU-145 [1]; Homo sapiens
  GI50: 1.84 µM
DU-145 [1]; [15]
  CC50: 6.83 µM
OVCAR-4
  TGI: 2.82 µM
OVCAR-4; Homo sapiens
  GI50: 1.4 µM
  LC50 (concentration killing 50% of cells): 5.66 µM
NCI-H23
  TGI: 3.15 µM
NCI-H23; Homo sapiens
  GI50: 1.53 µM
NCI-H23; [15]
  CC50: 6.49 µM
LOX IMVI
  TGI: 2.32 µM
LOX IMVI; Homo sapiens
  GI50: 1.1 µM
  LC50 (concentration killing 50% of cells): 4.88 µM
SK-MEL-5
  TGI: 2.97 µM
SK-MEL-5; Homo sapiens
  GI50: 1.62 µM
SK-MEL-5; [15]
  CC50: 5.47 µM
OVCAR-8
  TGI: 3.28 µM
OVCAR-8; Homo sapiens
  GI50: 1.64 µM
OVCAR-8; [15]
  CC50: 6.56 µM
SR [2]
  TGI: 2.43 µM
SR [2]; Homo sapiens
  GI50: 0.35 µM
SR [2]; [15]
  CC50: > 100 µM
CCRF-CEM [3]
  GI50: 2.23 µM
  LC50 (concentration killing 50% of cells): > 100 µM
T-47D [4]
  TGI: 3.62 µM
T-47D [4]; Homo sapiens, T47D
  GI50: 1.5 µM
T-47D [4]; Homo sapiens, T47D, read-out: LC50 (the source's name)
  CC50: 8.74 µM
K-562 [5]; 48 h
  TGI: >100 µM
K-562 [5]; Homo sapiens, K562, 48 h
  GI50: 0.381 µM
  LC50: > 100 µM
NCI-H322M
  TGI: 12.8 µM
NCI-H322M; Homo sapiens
  GI50: 3.42 µM
NCI-H322M; [15]
  CC50: 35.8 µM
PC-3; 48 h
  GP (growth percentage): 27.99%
PC-3; Homo sapiens
  inhibition at 10 µM: 72%
DU-145 [6]
  GP (growth percentage): −92.99%
BT-549
  GP (growth percentage): 24.11%
MDA-MB-468 [7]
  GP (growth percentage): −78.49%
T-47D [8]
  GP (growth percentage): −56.01%
MDA-MB-231/ATCC
  GP (growth percentage): −28.56%
HS 578T [9]
  GP (growth percentage): −32.78%
MCF7
  GP (growth percentage): −51.73%
TK-10
  TGI: 3.78 µM
TK-10; Homo sapiens
  GI50: 2.32 µM
  LC50 (concentration killing 50% of starting cells): 6.15 µM
SW-620
  TGI: 3.47 µM
SW-620; Homo sapiens
  GI50: 1.76 µM
  LC50: 6.85 µM
OVCAR-5
  TGI: 5.79 µM
OVCAR-5; Homo sapiens
  GI50: 2.38 µM
  LC50 (lethal concentration 50%): 23.7 µM
UACC-62
  TGI: 3.42 µM
UACC-62; Homo sapiens
  GI50: 1.77 µM
  LC50 (concentration killing 50% of cells): 6.6 µM
HS 578T [10]
  TGI: 5.78 µM
HS 578T [10]; Homo sapiens
  GI50: 2.43 µM
HS 578T [10]; [15]
  CC50: > 100 µM
MDA-MB-468 [11]
  TGI: 2.57 µM
MDA-MB-468 [11]; Homo sapiens
  GI50: 1.23 µM
  LC50: 5.37 µM
K-562 [12]; 10 µM single dose, 48 h
  GP (growth percentage): 4.73%
K-562 [12]; Homo sapiens, K562, 10 µM single dose
  inhibition at 10 µM: 95.3%
HL-60(TB)
  GP (growth percentage): −13.44%
SR [13]
  GP (growth percentage): −3.19%
MOLT-4; 48 h
  GP (growth percentage): 8.29%
MOLT-4; Homo sapiens
  inhibition at 10 µM: 91.7%
RPMI-8226
  GP (growth percentage): −39.66%
CCRF-CEM [14]; 48 h
  GP (growth percentage): 2.72%
CCRF-CEM [14]; Homo sapiens
  inhibition at 10 µM: 97.3%

— publication PMC11200585, “Prospects for Prostate Cancer Chemotherapy: Cytotoxic Evaluation and Mechanistic Insights of Quinolinequinones with ADME/PK Profile” (Biomedicines, 2024)
